COc1c(N2CCNC(C)C2)c(F)cc2c(=O)c(C(=O)O)cn(C3CC3)c12 (configuration not stated)
solubility (mole fraction)
Settings | 273.15 K | 278.15 K | 283.15 K | 288.15 K | 293.15 K | 298.15 K | 303.15 K | 308.15 K | 313.15 K | 318.15 K
in 1,4-dioxane | – | – | – | 0.000952 | 0.00111 | 0.00129 | 0.00149 | 0.00172 | 0.00198 | 0.00228
in 2-butanone | 0.00158 | 0.00186 | 0.00219 | 0.00257 | 0.003 | 0.00349 | 0.00405 | 0.00468 | 0.00539 | 0.0062
in DMF | 0.00259 | 0.00305 | 0.00359 | 0.00417 | 0.00486 | 0.00566 | 0.00653 | 0.00751 | 0.00864 | 0.00989
in acetone | 0.00081 | 0.000942 | 0.00111 | 0.0013 | 0.00152 | 0.00177 | 0.00204 | 0.00235 | 0.0027 | 0.00309
in acetonitrile | 0.0013 | 0.0015 | 0.00177 | 0.00208 | 0.00244 | 0.00281 | 0.00322 | 0.0037 | 0.00424 | 0.00485
in ethanol | 0.000261 | 0.000326 | 0.000403 | 0.000489 | 0.000585 | 0.000698 | 0.000829 | 0.000984 | 0.00116 | 0.00136
in ethyl acetate | 0.00323 | 0.00378 | 0.0044 | 0.00509 | 0.00588 | 0.00679 | 0.00778 | 0.00893 | 0.0102 | 0.0117
in isopropanol | 0.000123 | 0.000158 | 0.000204 | 0.000254 | 0.000322 | 0.000401 | 0.000498 | 0.000613 | 0.000751 | 0.000912
in methanol | 0.00019 | 0.000232 | 0.000294 | 0.00036 | 0.000438 | 0.000531 | 0.000637 | 0.000752 | 0.000902 | 0.00107
in n-butanol | 0.00105 | 0.00122 | 0.00143 | 0.00169 | 0.00195 | 0.00225 | 0.0026 | 0.00299 | 0.00344 | 0.00395
in n-propanol | 0.000364 | 0.000445 | 0.000545 | 0.000655 | 0.000778 | 0.000922 | 0.00109 | 0.00127 | 0.00149 | 0.00173
in toluene | 5.9e-05 | 8.1e-05 | 0.000109 | 0.000146 | 0.000199 | 0.000261 | 0.000344 | 0.000446 | 0.000577 | 0.000742

Reference: BigSolDB 2.1
